Assay results: patent publication US10196369B2, “Spirocyclic EBI2 modulators” (Sanford Burnham Prebys Medical Discovery Institute, priority 2013, dated 2019)

The compounds below were run against EBI2 (Homo sapiens, UniProt P32249) (assay: Cell-based luminescent assay of EBI2 modulation (7a,25-OHC stimulated)). Conditions: 7a,25-OHC final assay concentration 80 nM, 60 minute incubation.
Summary of the method: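 Cells expressing EBI2 were plated overnight, then treated 60 min at 37 °C with compound (final 4-5 uM) plus 7a,25-OHC (80 nM final). Detection reagent was added for 60 min at 25 °C in the dark, with luminescence read-out. Values were normalized between neutral and stimulator controls and corrected for plate patterns.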

EBI2, sequence (P32249 whole entry): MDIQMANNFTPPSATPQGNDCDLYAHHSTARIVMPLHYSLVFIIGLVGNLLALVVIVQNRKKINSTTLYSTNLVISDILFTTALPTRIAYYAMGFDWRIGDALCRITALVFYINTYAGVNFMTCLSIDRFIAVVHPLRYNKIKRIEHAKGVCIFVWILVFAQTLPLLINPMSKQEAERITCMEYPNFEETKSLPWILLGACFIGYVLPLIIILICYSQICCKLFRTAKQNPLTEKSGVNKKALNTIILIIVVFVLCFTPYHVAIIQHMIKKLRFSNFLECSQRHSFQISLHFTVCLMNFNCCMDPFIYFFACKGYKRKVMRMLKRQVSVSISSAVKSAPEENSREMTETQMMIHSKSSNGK

Row | Compound | IC50 [nM]
1 | O=C(c1cc2cc(Br)ccc2[nH]1)N1CC2(CCN(Cc3ccc(C(F)(F)F)cc3)CC2)C1 [Compound C50, 5-bromoindol-2-yl 7-{[4-(trifluoromethyl)phenyl]methyl}-2,7-diazaspiro[3.5]non-2-yl ketone] | 500 to 5000
2 | O=C(C#Cc1ccc(F)cc1)N1CCC2(CC1)CN(C(=O)c1ccc(Br)cc1)C2 [Compound C99, 1-{2-[(4-bromophenyl)carbonyl]-2,7-diazaspiro[3.5]non-7-yl}-3-(4-fluorophenyl)prop-2-yn-1-one] | 100 to 500
3 | O=C(c1ccc(C(F)(F)F)c(F)c1)N1CCC2(CC1)CN(C(=O)c1cc3cc(Cl)ccc3[nH]1)C2 [Compound C18, 5-chloroindol-2-yl 7-{[3-fluoro-4-(trifluoromethyl)phenyl]carbonyl}-2,7-diazaspiro[3.5]non-2-yl ketone] | < 100
4 | O=C(C#Cc1ccc(Cl)cc1)N1CC2(CCN(C(=O)c3ccc(C(F)(F)F)cc3)CC2)C1 [Compound C80, 3-(4-chlorophenyl)-1-(7-{[4-(trifluoromethyl)phenyl]carbonyl}-2,7-diazaspiro[3.5]non-2-yl)prop-2-yn-1-one] | < 100
5 | O=C(/C=C/c1ccc(Cl)c(Cl)c1)N1CC2(CCN(Cc3ccc(F)cc3)CC2)C1 [Compound C32, (2E)-3-(3,4-dichlorophenyl)-1-{7-[(4-fluorophenyl)methyl]-2,7-diazaspiro[3.5]non-2-yl}prop-2-en-1-one] | 100 to 500
6 | O=C(c1cc2cc(Br)ccc2[nH]1)N1CC2(CCN(C(=O)c3ccc(F)cc3C(F)(F)F)CC2)C1 [Compound C48, 5-bromoindol-2-yl 7-{[4-fluoro-2-(trifluoromethyl)phenyl]carbonyl}-2,7-diazaspiro[3.5]non-2-yl ketone] | < 100
7 | O=C(/C=C/c1ccc(Br)cc1)N1CC2(CCN(Cc3cc(C(F)(F)F)cc(C(F)(F)F)c3)CC2)C1 [Compound C24, (2E)-1-(7-{[3,5-bis(trifluoromethyl)phenyl]methyl}-2,7-diazaspiro[3.5]non-2-yl)-3-(4-bromophenyl)prop-2-en-1-one] | 100 to 500
8 | O=C(C#Cc1ccc(Cl)cc1)N1CC2(CCN(Cc3ccc(F)cc3)CC2)C1 [Compound C81, 3-(4-chlorophenyl)-1-{7-[(4-fluorophenyl)methyl]-2,7-diazaspiro[3.5]non-2-yl}prop-2-yn-1-one] | 100 to 500
9 | O=C(c1ccc(-c2nnn[nH]2)cc1)N1CCC2(CC1)CN(C(=O)c1cc3cc(Cl)ccc3[nH]1)C2 [Compound C42, 5-chloroindol-2-yl 7-[(4-(1H-1,2,3,4-tetraazol-5-yl)phenyl)carbonyl]-2,7-diazaspiro[3.5]non-2-yl ketone] | 500 to 5000
